Test results: patent US8901337B2, “Metal complexes having dual histone deacetylase inhibitory and DNA-binding activity” (Royal College of Surgeons in Ireland, priority 2009, dated 2014)

Columns and labels:
A2780 P cells = experiment: Morphological analysis (methylene blue/eosin and DAPI staining), A2780 P; format: cell-based, human; conditions: IC50 and IC75, 72 hr
Protocol: Preparations of A2780 P and A2780-cisR cells were exposed to test agents for 72 hr and stained with methylene blue and eosin^19. Drug-treated cells were grown in petri dishes, washed once with PBS, once with PBS:methanol (1:1, v/v), and then fixed in 100% (v/v) methanol for 10 min. Following fixation, cell monolayers were rinsed with anhydrous methanol and stained with methylene blue and eosin for 2 min. Monolayers were then agitated for a further 2 min, destained by rinsing under a gentle stream of water and then finally rinsed with distilled water. Phase contrast microscopy was carried out using a Ceti-phase contrast microscope.
Drug-treated cells were also stained using a DNA-binding agent commonly used to stain nuclei and visualise nuclear morphology and DNA condensation, namely 4,6-diamidino-2-phenylindole (DAPI). Briefly, a monolayer of drug-treated cells was washed in PBS and fixed with 4% (w/v) paraformaldehyde for 30 min at room temperature. These cells were then permeabilized with 0.2% (v/v) Triton X in PBS and incubated with 1 μg/ml of DAPI for 30 min. Cells were again washed three times with PBS and viewed using a fluorescent microscope with 340/380 nm excitation filter at 250× magnification. Apoptotic cells were confirmed by identification of intensely stained, fragmented nuclei and condensed chromatin.

[1] = test system: A2780 cisR (cisplatin resistant ovarian cancer cells); experiment: Cellular uptake of Pt (FAAS), A2780 cisR; format: cell-based, human; conditions: 10 μM, 24 hours treatment
A549 (lung cancer cells) = experiment: Cellular uptake of Pt (FAAS), A549; format: cell-based; conditions: 10 μM, 72 hours treatment
Protocol: (§1) Cellular uptake of Pt compounds was measured in SKBR, SW480, A549, A2780P and CH1 cells. The cells were seeded in 60 mm tissue culture dishes with 10 mL of their respective medium and after overnight incubation, the cells were treated with the Pt complexes for 72 h at 10 μM concentration. The cell monolayers at the end of the incubation with the Pt complexes were washed (twice) with ice-cold phosphate buffered saline (PBS), trypsinized and harvested into cold (4° C.) PBS. Cell suspensions were centrifuged and the pellets were stored in PBS at −80° C. until assayed. Afterward, the pellets were digested by high pressure microwave mineralization and Pt content was determined by flameless atomic absorption spectrophotometry (FAAS). The results of cellular Pt uptake were corrected for adsorption effects. All experiments were made in triplicate.^17

cell line (CH1) = experiment: MTS in vitro cytotoxicity, CH1; format: cell-based; conditions: 72 hours, Table 1, read-out: IC50 values against CH1
Protocol: (§2) All cells were kept in a humidified atmosphere with 5% CO2 at 37° C.; cells from confluent monolayers were removed from flasks by trypsin/EDTA solution and their viability determined by the trypan blue exclusion test.
(§3) Cell growth was determined by the [3-(4,5-dimethylthiazol-2-yl)-5-(3-carboxymethoxyphenyl)-2-(4-sulfophenyl)-2H-tetrazolium, inner salt, (MTS test, Promega, Southampton, UK), a colorimetric assay based on the ability of the viable cells to reduce a soluble yellow tetrazolium salt to blue formazan. 10,000 ovarian cancer cells or 3,000 fibroblast cells for example were seeded per well onto 96-well plates in 100 μl of the appropriate culture medium. 24 hr after sowing the cells, the media was removed and the cells were treated by adding 100 μl of the compound media solutions at the appropriate concentrations. cis-[Pt(NH3)2(malSAHA−2H)], cisplatin and cis-[Pt(NH3)2(mal)] were prepared freshly in cell culture media. […] The maximum percentage of dmso present in any well was less than 0.1% (v/v). cis-[Pt(NH3)2(malBel—2H)], belinostat and malbelinostat were freshly prepared in dimethyl formamide (DMF) and diluted in culture media prior to the MTS assay. The maximum percentage of DMF present in any well was 0.5% (v/v). A range of concentrations between 1 μM and 100 μM was used.
(§4) After 72 hr of treatment, 20 μl of the MTS reagent was added to each well and the plates incubated for 2 hr at 37° C. […] The percentages of surviving cells relative to untreated controls were determined.

[2] = test system: SKBR (breast cancer cells); experiment: Cellular uptake of Pt (FAAS), SKBR; format: cell-based; conditions: 72 hours treatment; for Uptake of Pt complexes into SKBR: 10 μM
Protocol: as §1

[3] = test system: SW480 (colon cancer cells); experiment: Cellular uptake of Pt (FAAS), SW480; format: cell-based; conditions: 10 μM, 72 hours treatment
Protocol: as §1

CH1 (cancer cells) = experiment: Cellular uptake of Pt (FAAS), CH1; format: cell-based; conditions: 10 μM, 72 hours treatment
Protocol: as §1

[4] = test system: lung cancer cell line (A549); experiment: MTS in vitro cytotoxicity, A549; format: cell-based; conditions: 72 hours, Table 1, read-out: IC50 values against A549
Protocol: as §2, §3, §4

[5] = test system: DNA in CH1 cells (lymphoma); experiment: Pt binding to DNA in cultured cells (ICP-MS), CH1; format: cell-based; conditions: 43 μM of Pt complexes, 2 hours of cell treatment
Protocol: Pt DNA binding of Pt complexes was measured in SW480 cells (colon cancer) and CH1 cells (lymphoma) or alternatively A2780 P and A2780 cisR cells (sensitive and resistant to cisplatin respectively). The cells were seeded in 60 mm tissue culture dishes with 10 ml of their respective medium. After overnight incubation the medium was removed and replaced with 10 ml of the respective medium containing a platinum complex giving a final concentration of 43 or 40 μM depending on the experiment. The cells were incubated with a given Pt complex for either 2 or 4 h depending on the experiment. The cells were trypsinised and centrifuged. The supernantant was removed and the cells washed twice with 1×PBS and centrifuged. The pellet was re-suspended in DNA buffer to which Proteinase K (20 mg/mL) and 10% SDS were added. After a gentle shake and incubation at 45° C. for two hours, RNAse (100 mg/mL) was added and the cells were incubated at 37° C. overnight. The volume of supernatant was noted and an equal volume of phenol was added.
The resulting mixture was shook for 10 min, then centrifuged for 10 min at 10° C. The supernatant was transferred into a new centrifuge tube (15 ml) and the volume was noted. […] The absorbance of the DNA by was measured by UV spectrophotometry at 260 nm and 280 nm and the concentration of DNA calculated. Platinum bound to DNA was determined by ICP-MS.

Compound	cellular morphology and integrity of DNA (A2780 P cells)	Uptake of Pt complexes into A2780 cisR [1] [pmol Pt/2 × 10^6 cell]	Uptake of Pt complexes into A549 (A549 (lung cancer cells)) [pmol Pt/2 × 10^6 cell]	IC50 (cell line (CH1)) [µM]	Uptake of Pt complexes into SKBR [2] [pmol Pt/2 × 10^6 cell]	uptake by cancer cells compared with cisplatin (in words) ([2]; SKBR, SW480, A549, A2780 P, CH1)	Uptake of Pt complexes into SW480 [3] [pmol Pt/2 × 10^6 cell]	Uptake of Pt complexes into CH1 (CH1 (cancer cells)) [pmol Pt/2 × 10^6 cell]	IC50 [4] [µM]	DNA-bound Pt in CH1 [5]
[NH2][Pt]1([NH2])[O]C(=O)C(Cc2ccc(NS(=O)(=O)c3ccc(/C=C/C(=O)NO)cc3)cc2)C(=O)[O]1 [cis-[Pt(NH3)2(malBel−2H)], cis-[Pt(NH3)2(malBel−2H)].1.5H2O]	considerable thinning of the monolayer, attenuation of cells and the nuclei to be intensively stained and fragmented	42.3 ± 5.3	–	–	–	–	–	–	–	–
[NH2][Pt]1([NH2])[O]C(=O)C(Cc2ccc(NC(=O)CCCCCCC(=O)NO)cc2)C(=O)[O]1 [cis-[Pt(NH3)2(malSAHA−2H)], cis-[Pt(NH3)2(malSAHA−2H)].3H2O]	–	–	6419 ± 619	3.8 ± 0.5	6568 ± 312	taken up by cancer cells after 72 hours treatment and to a greater extent than cisplatin	5422 ± 222	1595 ± 158	12.7 ± 1.8	–
N.N.[Cl][Pt][Cl] [cisplatin, cis-[Pt^II(NH3)2Cl2], reference compound]	considerable thinning of the monolayer, attenuation of cells and the nuclei to be intensively stained and fragmented	98 ± 11	614.85 ± 94.85	1 ± 0.5	876.25 ± 70.55	–	391.95 ± 51.95	145.4 ± 21.8	6.3 ± 0.1	10.5 · 10^−15 moles of Pt/μg of DNA
